Data: publication PMC11172478, “1,3,5-Triazine as Branching Connector for the Construction of Novel Antimicrobial Peptide Dendrimers: Synthesis and Biological Characterization” (International Journal of Molecular Sciences, 2024)
In brackets after ≈: the same amount, converted by molar mass. Starred links: 1 amine or outer side, 2 acyl side, 3 side chain; linkers in the order of their positions; H or OH if unused. Positions of bridges follow the written chain, without caps; N, C: chain ends. Residues, ends and D or L forms follow the SMILES beside them. Chains are numbered I, II in the order given. X1 = O=C(c1ccc(Oc2nc(NCCN[*:2])nc(NCCN[*:3])n2)cc1)[*:1]

Key:
P. aeruginosa ATCC 27853 [1] = type: cell-based; conditions: broth microdilution, MHBCA, 24 h, 37 °C, visual turbidity
Procedure: (§1) The antimicrobial activity of the dendrimers was evaluated against E. coli ATCC 25922, P. aeruginosa ATCC 27853 and S. aureus ATCC 29213 strains. The MIC values were determined by the broth microdilution method. Briefly, the different strains were grown in Muller Hinton broth cation adjusted (MHBCA) medium overnight at 37 °C with shaking at 200 rpm. The bacterial cultures were then adjusted to OD625nm of 0.08–0.1, and 5 μL of each diluted suspension was added to 96-well plates previously filled with MHBCA and serially diluted peptides. Plates were incubated for 24 h at 37 °C. Finally, the MIC was determined macroscopically, based on the visual turbidity of the wells.

E. coli ATCC 25922 = type: cell-based; conditions: broth microdilution, MHBCA, 24 h, 37 °C, visual turbidity
Procedure: as §1

S. aureus ATCC 29213 = type: cell-based; conditions: ATCC 29213, 24 h
Procedure: as §1

E. coli 13974 = assay: microbe, parasite or virus in culture; type: cell-based; conditions: 13974, 24 h
Procedure: (§2) E. coli ATCC 25922, P. aeruginosa ATCC 27853, S. aureus ATCC 29213, P. aeruginosa 666 SJD (ciprofloxacin-resistant), P. aeruginosa P12, P13, P15, P16 and P17 (MDR isolates) and E. coli 7987, 5545, 8248, 13974, 7259 and 208691 (MDR isolates) from our own collection were included in the present study.
as §1

P. aeruginosa P12 = assay: microbe, parasite or virus in culture; type: cell-based; conditions: P12, 24 h
Procedure: as §2, §1

P. aeruginosa P17 = assay: microbe, parasite or virus in culture; type: cell-based; conditions: P17, 24 h
Procedure: as §2, §1

P. aeruginosa P16 = assay: microbe, parasite or virus in culture; type: cell-based; conditions: P16, 24 h
Procedure: as §2, §1

E. coli 5545 = assay: microbe, parasite or virus in culture; type: cell-based; conditions: 5545, 24 h
Procedure: as §2, §1

E. coli 8248 = assay: microbe, parasite or virus in culture; type: cell-based; conditions: 8248, 24 h
Procedure: as §2, §1

E. coli 7259 = assay: microbe, parasite or virus in culture; type: cell-based; conditions: 7259, 24 h
Procedure: as §2, §1

P. aeruginosa P15 = assay: microbe, parasite or virus in culture; type: cell-based; conditions: P15, 24 h
Procedure: as §2, §1

P. aeruginosa ATCC 27853 [2] = assay: Bacterial growth curves; type: cell-based; conditions: P. aeruginosa ATCC 27853, TSB, MIC, ½ MIC and ¼ MIC, 24 h, 37 °C, OD 850 nm
Procedure: The real-time effect of the peptide dendrimers was examined on the growth curves of E. coli ATCC 25922 and P. aeruginosa ATCC 27853. Volumes of 10 mL of TSB liquid cultures containing 1–5 × 10^5 CFU/mL in the logarithmic phase were adjusted in Falcon tubes. Peptide dendrimers were then added at MIC and sub-inhibitory concentrations (½ MIC and ¼ MIC). Incubation was performed in RTS-1C real-time reverse spin bioreactors RTS-1 (Biosan) for 24 h at 37 °C and 2000 rpm. Growth was measured noninvasively as optical density (OD 850 nm) every 15 min.

L-929 fibroblasts = assay: Cytotoxicity, resazurin reduction; type: cell-based, murine; conditions: L-929 cells, 24 h, resazurin fluorescence
Procedure: The cytotoxicity assay was performed in the human hepatocellular carcinoma cell line Hep G2 ATCC and murine L-929 fibroblasts (NCTC clone 929, ECACC 88102702) obtained from the laboratory of Dr. Pérez-Tomás (Cancer Cell Biology, University of Barcelona). The cytotoxicity of the selected peptides was determined by measuring the intracellular reduction of resazurin sodium salt (Sigma-Aldrich, St. Louis, MO, USA). Briefly, HepG2 and L-929 cells were grown in RPMI 1640 or MEM medium, respectively (Biochrom AG, Berlin, Germany), supplemented with 10% fetal bovine serum. Cells from pre-confluent cultures were harvested with trypsin-EDTA and maintained at 37 °C in 5% CO2. Then, 100 µL of each cell line was seeded into 96-well flat-bottomed microplates and incubated for 24 h at 37 °C. The medium was then replaced with 200 μL of medium containing the dendrimers at concentrations ranging from 64 to 0.125 μg/mL and the microplates were incubated for 24 h at 37 °C. Next, 20 μL of resazurin was added to each well and the plates were incubated under the same conditions for 24 h. Fluorescence was measured using a multiwell scanning spectrophotometer at an excitation wavelength of 530 nm and an emission wavelength of 590 nm. Cytotoxicity was then calculated by comparing the fluorescence of the treated and untreated cells (Figure S22).

P. aeruginosa ATCC 27853 [3] = assay: Time-kill curves; type: cell-based; conditions: P. aeruginosa ATCC 27853, ½ MIC
Procedure: The death kinetics of the active dendrimers were examined by plotting their time-kill curves against E. coli ATCC 25922 and P. aeruginosa ATCC 27853. The dendrimers were added to a starting bacterial inoculum of 10^6 CFU/mL in 5 mL of MHBCA medium. Dendrimers were tested at three different concentrations: MIC, ½ MIC and ¼ MIC. They were incubated for 24 h at 37 °C with shaking at 200 rpm. Samples were aseptically collected at 0, 1, 2, 4 and 6 h, serially diluted in Ringer ¼ and plated on Tryptone soy agar for colony counting.
The response of the microbial strains to the dendrimers was determined based on a logarithmic decrease in viable bacteria. A compound was considered active if it caused a reduction of ≥1 log10 CFU/mL, compared to the corresponding counts at time 0 h. In addition, a dendrimer was considered bactericidal if it caused a reduction of ≥3 log10 CFU/mL [40].

Row | SMILES | MIC P. aeruginosa ATCC 27853 (P. aeruginosa ATCC 27853 [1]) | MIC E. coli ATCC 25922 (E. coli ATCC 25922) | MIC S. aureus ATCC 29213 (S. aureus ATCC 29213) | MIC (E. coli 13974) | MIC (P. aeruginosa P12) | MIC (P. aeruginosa P17) | MIC (P. aeruginosa P16) | MIC (E. coli 5545) | MIC (E. coli 8248) | MIC (E. coli 7259) | MIC (P. aeruginosa P15) | effect on growth curve (in words) (P. aeruginosa ATCC 27853 [2]) | % Cytotoxicity at 64µg/mL, L-929 (L-929 fibroblasts) | time-kill activity at ½ MIC (in words) (P. aeruginosa ATCC 27853 [3])
1 | CC(C)C[C@H](NC(=O)c1ccc(Oc2nc(NCCNC(=O)[C@H](CCCCN)NC(=O)[C@H](CC(C)C)NC(=O)[C@H](CCCCN)NC(=O)[C@H](CC(C)C)NC(=O)[C@H](CCCCN)NC(=O)[C@@H](N)CC(C)C)nc(NCCNC(=O)[C@H](CCCCN)NC(=O)[C@H](CC(C)C)NC(=O)[C@H](CCCCN)NC(=O)[C@H](CC(C)C)NC(=O)[C@H](CCCCN)NC(=O)[C@@H](N)CC(C)C)n2)cc1)C(=O)N[C@@H](CCCCN)C(=O)N[C@@H](CC(C)C)C(=O)N[C@@H](CCCCN)C(=O)N[C@@H](CC(C)C)C(=O)N[C@@H](CCCCN)C(N)=O [Dendrimer 1, H-[(LK)3]2-(EDA)2-TA-PHBA-(LK)3-NH2] (I: LKLKLK-NH2 / II: H-LKLKLK / III: H-LKLKLK; linker I:N-II:C-III:C via X1) | 16 µg/mL (≈ 6.39 µM) | 8 µg/mL (≈ 3.19 µM) | >64 µg/mL | 8 µg/mL (≈ 3.19 µM) | >128 µg/mL | 16 µg/mL (≈ 6.39 µM) | 64 µg/mL (≈ 25.6 µM) | 8 µg/mL (≈ 3.19 µM) | 8 µg/mL (≈ 3.19 µM) | 32 µg/mL (≈ 12.8 µM) | >128 µg/mL | noticeable growth delay | 2.8% | –
2 | CC(C)C[C@H](NC(=O)[C@H](CCCCN)NC(=O)[C@H](CC(C)C)NC(=O)[C@H](CCCCN)NC(=O)[C@H](CC(C)C)Nc1nc(NCCNC(=O)[C@H](CCCCN)NC(=O)[C@H](CC(C)C)NC(=O)[C@H](CCCCN)NC(=O)[C@H](CC(C)C)NC(=O)[C@H](CCCCN)NC(=O)[C@@H](N)CC(C)C)nc(NCCNC(=O)[C@H](CCCCN)NC(=O)[C@H](CC(C)C)NC(=O)[C@H](CCCCN)NC(=O)[C@H](CC(C)C)NC(=O)[C@H](CCCCN)NC(=O)[C@@H](N)CC(C)C)n1)C(=O)N[C@@H](CCCCN)C(N)=O [Dendrimer 2, H-[(LK)3-EDA]2-TA-(LK)3-NH2] | 16 µg/mL (≈ 6.71 µM) | 2 µg/mL (≈ 0.839 µM) | >64 µg/mL | 8 µg/mL (≈ 3.36 µM) | 32 µg/mL (≈ 13.4 µM) | 16 µg/mL (≈ 6.71 µM) | 32 µg/mL (≈ 13.4 µM) | 8 µg/mL (≈ 3.36 µM) | 8 µg/mL (≈ 3.36 µM) | 2 µg/mL (≈ 0.839 µM) | 16 µg/mL (≈ 6.71 µM) | complete growth inhibition occurred at the MIC | 0% | higher antimicrobial activity than dendrimer 1
